Laboratory results from article PMC6270616, “Antidiabetic and Antioxidant Properties of Alkaloids from Catharanthus roseus (L.) G. Don” (Molecules, 2013).

Target: T1, protein tyrosine phosphatase-1B (PTP-1B) (Homo sapiens, UniProt P18031)
T1 construct: gene PTPN1; recombinant PTP-1B
T1 sequence (P18031 1-435): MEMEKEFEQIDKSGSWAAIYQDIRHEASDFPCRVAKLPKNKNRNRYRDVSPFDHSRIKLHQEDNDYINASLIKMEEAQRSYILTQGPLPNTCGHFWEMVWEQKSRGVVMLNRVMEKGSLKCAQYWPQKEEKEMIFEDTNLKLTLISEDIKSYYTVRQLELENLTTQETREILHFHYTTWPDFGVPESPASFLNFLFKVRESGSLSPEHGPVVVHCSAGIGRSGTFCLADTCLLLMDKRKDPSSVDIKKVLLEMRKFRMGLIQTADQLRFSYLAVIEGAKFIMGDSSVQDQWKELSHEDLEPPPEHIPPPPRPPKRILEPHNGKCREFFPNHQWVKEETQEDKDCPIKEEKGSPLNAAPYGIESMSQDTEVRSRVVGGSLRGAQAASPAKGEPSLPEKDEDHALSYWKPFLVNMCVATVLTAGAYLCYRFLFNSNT
Assay: pNPP phosphatase assay with recombinant enzyme, absorbance at […] nm
Assay type: biochemical

## COC(=O)[C@@H]1C[C@@]23C=CCN4CC[C@@]5(c6ccccc6N[C@]15[C@@H]2C)[C@@H]43 [IV, vindolinine]
  pNPP phosphatase assay with recombinant enzyme, absorbance at 405 nm: compounds II–IV demonstrated good protein tyrosine phosphatase-1B (PTP-1B) inhibition activity
